Results published in patent publication US20250114486A1, “MARKED FATTY ACID DERIVATIVE, PRECURSOR COMPOUND THEREOF, AND USE THEREOF IN CONTRAST AGENT” (BEIJING NORMAL UNIVERSITY, priority 2022, published 2025).

Assay: In vivo biodistribution of radioactive ^99mTc complexes in female SD rats
Design: species or system female Sprague-Dawley (SD) rats
Conditions: for Biodistribution: Large Intestine / Biodistribution: Small Intestine / Biodistribution: Stomach: unit % ID
Method: Female SD rats (180-220 g, n=3) were fasted for 12 h before the experiment, and the purified radioactive 99mTc complexes 78-81 were prepared into physiological saline (containing 10% ethanol) solutions of about 250-350 μCi/mL. 200 μL of the above solution was injected into the tail vein of female SD rats, and the rats were killed by cervical dislocation at five time points, 15, 30, 60, 120 and 240 min after the tail vein injection. The blood, brain, heart, liver, spleen, lung, kidney, muscle, bone, large intestine, small intestine, stomach and tail were collected, weighed and counted, and the count distribution of each tissue and organ was calculated (unit: % ID/g, the unit of large intestine, small intestine and stomach is % ID), and the data are the mean±standard deviation of three mice in each phase. At the same time, 200 μL of the above solution was diluted to 20 mL, which was used as the % ID without deducting the tail count.

SMILES: COC(C)(C)C[N+]#[C][99Tc-5]([C]#[N+]CC(C)(C)OC)([C]#[N+]CC(C)(C)OC)([C]#[N+]CC(C)(C)OC)([C]#[N+]CC(C)(C)OC)[C]#[N+]CC(C)(C)OCCCCCCSCCCCC(=O)O [^99mTc complex 81]
- myocardial absolute uptake peak value (assessment): close to the corresponding value of myocardial perfusion imaging agent ^99mTc-MIBI
- Biodistribution: Blood (15 min post-injection): 0.018 ± 0.001 ID %/g
- Biodistribution: Bone (15 min post-injection): 0.24 ± 0.05 ID %/g
- Biodistribution: Heart (15 min post-injection): 3.37 ± 0.15 ID %/g
- Biodistribution: Kidney (15 min post-injection): 9.30 ± 0.20 ID %/g
- Biodistribution: Liver (15 min post-injection): 1.79 ± 0.26 ID %/g
- Biodistribution: Lungs (15 min post-injection): 0.86 ± 0.17 ID %/g
- Biodistribution: Muscle (15 min post-injection): 0.72 ± 0.11 ID %/g
- Biodistribution: Spleen (15 min post-injection): 0.70 ± 0.06 ID %/g
- Heart-to-Blood ratio (15 min post-injection): 192.24 ± 13.25
- Heart-to-Liver ratio (15 min post-injection): 1.93 ± 0.26
- Heart-to-Lungs ratio (15 min post-injection): 4.44 ± 0.26
- absolute myocardial uptake value (15 min post-injection): 3.37±0.15 % ID/g
- Biodistribution: Large Intestine (15 min post-injection): 6.53 ± 0.73 % ID
- Biodistribution: Small Intestine (15 min post-injection): 12.23 ± 2.35 % ID
- Biodistribution: Stomach (15 min post-injection): 1.05 ± 0.04 % ID
- Biodistribution: Blood (30 min post-injection): 0.016 ± 0.002 ID %/g
- Biodistribution: Bone (30 min post-injection): 0.15 ± 0.01 ID %/g
- Biodistribution: Heart (30 min post-injection): 3.45 ± 0.19 ID %/g
- Biodistribution: Kidney (30 min post-injection): 5.21 ± 1.54 ID %/g
- Biodistribution: Liver (30 min post-injection): 1.11± 0.16 ID %/g
- Biodistribution: Lungs (30 min post-injection): 0.575 ± 0.002 ID %/g
- Biodistribution: Muscle (30 min post-injection): 0.37 ± 0.06 ID %/g
- Biodistribution: Spleen (30 min post-injection): 0.88 ± 0.13 ID %/g
- Heart-to-Blood ratio (30 min post-injection): 220.61±45.73
- Heart-to-Liver ratio (30 min post-injection): 3.30 ± 0.42
- Heart-to-Lungs ratio (30 min post-injection): 6.00 ± 0.31
- absolute myocardial uptake value (30 min post-injection): 3.45±0.19 % ID/g
- Biodistribution: Large Intestine (30 min post-injection): 14.01 ± 1.87 % ID
- Biodistribution: Small Intestine (30 min post-injection): 17.82 ± 0.19 % ID
- Biodistribution: Stomach (30 min post-injection): 0.65 ± 0.11 % ID
- Biodistribution: Blood (60 min post-injection): 0.009 ± 0.001 ID %/g
- Biodistribution: Bone (60 min post-injection): 0.14 ± 0.01 ID %/g
- Biodistribution: Heart (60 min post-injection): 3.98 ± 0.25 ID %/g
- Biodistribution: Kidney (60 min post-injection): 4.90 ± 0.17 ID %/g
- Biodistribution: Liver (60 min post-injection): 0.60 ± 0.12 ID %/g
- Biodistribution: Lungs (60 min post-injection): 0.28 ± 0.07 ID %/g
- Biodistribution: Muscle (60 min post-injection): 0.77 ± 0.13 ID %/g
- Biodistribution: Spleen (60 min post-injection): 0.34 ± 0.04 ID %/g
- Heart-to-Blood ratio (60 min post-injection): 449.52±67.26
- Heart-to-Lungs ratio (60 min post-injection): 14.35 ± 2.38
- absolute myocardial uptake value (60 min post-injection): 3.98±0.25 % ID/g
- Biodistribution: Large Intestine (60 min post-injection): 6.44 ± 0.70 % ID
- Biodistribution: Small Intestine (60 min post-injection): 15.98 ± 1.55 % ID
- Biodistribution: Stomach (60 min post-injection): 0.46 ± 0.11 % ID
- Biodistribution: Blood (120 min post-injection): 0.020 ± 0.004 ID %/g
- Biodistribution: Bone (120 min post-injection): 0.12 ± 0.01 ID %/g
- Biodistribution: Heart (120 min post-injection): 2.83 ± 0.25 ID %/g
- Biodistribution: Kidney (120 min post-injection): 4.03 ± 0.24 ID %/g
- Biodistribution: Liver (120 min post-injection): 0.36 ± 0.05 ID %/g
- Biodistribution: Lungs (120 min post-injection): 0.27 ± 0.03 ID %/g
- Biodistribution: Muscle (120 min post-injection): 0.60 ± 0.11 ID %/g
- Biodistribution: Spleen (120 min post-injection): 0.25 ± 0.04 ID %/g
- Heart-to-Blood ratio (120 min post-injection): 146.14±22.27
- Heart-to-Liver ratio (120 min post-injection): 7.91 ± 0.50
- Heart-to-Lungs ratio (120 min post-injection): 10.43 ± 0.62
- absolute myocardial uptake value (120 min post-injection): 2.83±0.25 % ID/g
- Biodistribution: Large Intestine (120 min post-injection): 19.30 ± 1.11 % ID
- Biodistribution: Small Intestine (120 min post-injection): 24.46 ± 3.26 % ID
- Biodistribution: Stomach (120 min post-injection): 0.92 ± 0.03 % ID
- Biodistribution: Blood (240 min post-injection): 0.016 ± 0.002 ID %/g
- Biodistribution: Bone (240 min post-injection): 0.036 ± 0.005 ID %/g
- Biodistribution: Heart (240 min post-injection): 2.29 ± 0.05 ID %/g
- Biodistribution: Kidney (240 min post-injection): 2.07 ± 0.17 ID %/g
- Biodistribution: Liver (240 min post-injection): 0.17 ± 0.03 ID %/g
- Biodistribution: Lungs (240 min post-injection): 0.15 ± 0.02 ID %/g
- Biodistribution: Muscle (240 min post-injection): 0.48 ± 0.06 ID %/g
- Biodistribution: Spleen (240 min post-injection): 0.12 ± 0.02 ID %/g
- Heart-to-Blood ratio (240 min post-injection): 143.42±25.82
- Heart-to-Liver ratio (240 min post-injection): 11.82 ± 1.15
- Heart-to-Lungs ratio (240 min post-injection): 15.97 ± 2.41
- absolute myocardial uptake value (240 min post-injection): 2.29±0.05 % ID/g
- Biodistribution: Large Intestine (240 min post-injection): 27.81 ± 4.20 % ID
- Biodistribution: Small Intestine (240 min post-injection): 13.00 ± 1.55 % ID
- Biodistribution: Stomach (240 min post-injection): 0.30 ± 0.08 % ID
- absolute myocardial uptake peak value (peak at 60 min post-injection): 3.98±0.25 % ID/g

SMILES: COC(C)(C)C[N+]#[C][99Tc-5]([C]#[N+]CC(C)(C)OC)([C]#[N+]CC(C)(C)OC)([C]#[N+]CC(C)(C)OC)([C]#[N+]CC(C)(C)OC)[C]#[N+]CC(C)(C)OCCSCCCCC(=O)O [^99mTc complex 78]
- absolute myocardial uptake values (comparison with complexes 79-81): lower than the above values
- heart-to-liver ratios (comparison with complexes 79-81): lower than the above values
